± gives the expanded uncertainty stated by the source.
Details: Liquid

Row | vapor or sublimation pressure (363.41 K) [kPa] | vapor or sublimation pressure (337.84 K) [kPa] | SMILES
1 | 101.32 ± 1.7 |  | COC(=O)OC [dimethyl carbonate]
2 |  | 101.32 ± 1.7 | CO [methanol]

— the NIST ThermoML archive (doi:10.1021/je200697m)
